Laboratory results as given in ChEMBL document CHEMBL4270599, “Synthesis of a 3'-C-ethynyl-β-d-ribofuranose purine nucleoside library: Discovery of C7-deazapurine analogs as potent antiproliferative nucleosides” (Eur J Med Chem, 2018).

How the values were obtained:
Format in all cases: functional
[1] = tested on: SW-620; experiment: Cytotoxicity against human SW620 cells after 48 hrs by SRB assay; settings: SW-620, 48 h; for GI50: read-out: GI50
[2] = tested on: DU-145; experiment: Cytotoxicity against human DU145 cells after 48 hrs by SRB assay; settings: DU-145, 48 h; for GI50: read-out: GI50; for CC50: read-out: pLC50 (the source's name) (converted)
[3] = tested on: Hs-578T; experiment: Cytotoxicity against human Hs 578T cells after 48 hrs by SRB assay; settings: for GI50: read-out: GI50; for TGI: read-out: TGI
[4] = tested on: CCRF-CEM; experiment: Growth inhibition of human CCRF-CEM cells assessed as cell growth at 10^-8 M incubated for 48 hrs by sulforhodamine B assay relative to control; settings: read-out: Activity
[5] = tested on: MOLT-4; experiment: Growth inhibition of human MOLT4 cells assessed as cell growth at 10^-8 M incubated for 48 hrs by sulforhodamine B assay relative to control; settings: MOLT-4, 48 h, read-out: Activity
[6] = tested on: RPMI-8226; experiment: Growth inhibition of human RPMI8226 cells assessed as cell growth at 10^-8 M incubated for 48 hrs by sulforhodamine B assay relative to control; settings: RPMI-8226, 48 h, read-out: Activity
[7] = tested on: EKVX; experiment: Growth inhibition of human EKVX cells assessed as cell growth at 10^-8 M incubated for 48 hrs by sulforhodamine B assay relative to control; settings: read-out: Activity
[8] = tested on: SW-620; experiment: Growth inhibition of human SW620 cells assessed as cell growth at 10^-8 M incubated for 48 hrs by sulforhodamine B assay relative to control; settings: SW-620, 48 h, read-out: Activity
[9] = tested on: SF-268; experiment: Growth inhibition of human SF268 cells assessed as cell growth at 10^-8 M incubated for 48 hrs by sulforhodamine B assay relative to control; settings: SF-268, 48 h, read-out: Activity
[10] = tested on: SF-539; experiment: Growth inhibition of human SF539 cells assessed as cell growth at 10^-8 M incubated for 48 hrs by sulforhodamine B assay relative to control; settings: SF-539, 48 h, read-out: Activity
[11] = tested on: Malme-3M; experiment: Growth inhibition of human MALME-3M cells assessed as cell growth at 10^-8 M incubated for 48 hrs by sulforhodamine B assay relative to control; settings: read-out: Activity
[12] = tested on: SK-MEL-2; experiment: Growth inhibition of human SK-MEL-2 cells assessed as cell growth at 10^-8 M incubated for 48 hrs by sulforhodamine B assay relative to control; settings: SK-MEL-2, 48 h, read-out: Activity
[13] = tested on: SK-MEL-28; experiment: Growth inhibition of human SK-MEL-28 cells assessed as cell growth at 10^-8 M incubated for 48 hrs by sulforhodamine B assay relative to control; settings: SK-MEL-28, 48 h, read-out: Activity
[14] = tested on: MDA-MB-231; experiment: Growth inhibition of human MDA-MB-231 cells assessed as cell growth at 10^-8 M incubated for 48 hrs by sulforhodamine B assay relative to control; settings: MDA-MB-231, 48 h, read-out: Activity
[15] = tested on: NCI-H522; experiment: Growth inhibition of human NCI-H522 cells assessed as cell growth at 10^-7 M incubated for 48 hrs by sulforhodamine B assay relative to control; settings: NCI-H522, 48 h, read-out: Activity
[16] = tested on: HCT-15; experiment: Growth inhibition of human HCT15 cells assessed as cell growth at 10^-7 M incubated for 48 hrs by sulforhodamine B assay relative to control; settings: HCT-15, 48 h, read-out: Activity
[17] = tested on: SF-539; experiment: Growth inhibition of human SF539 cells assessed as cell growth at 10^-7 M incubated for 48 hrs by sulforhodamine B assay relative to control; settings: SF-539, 48 h, read-out: Activity
[18] = tested on: UACC-257; experiment: Growth inhibition of human UACC257 cells assessed as cell growth at 10^-7 M incubated for 48 hrs by sulforhodamine B assay relative to control; settings: UACC-257, 48 h, read-out: Activity
[19] = tested on: NCI/ADR-RES; experiment: Growth inhibition of human NCI/ADR-RES cells assessed as cell growth at 10^-7 M incubated for 48 hrs by sulforhodamine B assay relative to control; settings: read-out: Activity
[20] = tested on: RXF 393; experiment: Growth inhibition of human RXF393 cells assessed as cell growth at 10^-7 M incubated for 48 hrs by sulforhodamine B assay relative to control; settings: RXF 393, 48 h, read-out: Activity
[21] = tested on: CCRF-CEM; experiment: Growth inhibition of human CCRF-CEM cells assessed as cell growth at 10^-6 M incubated for 48 hrs by sulforhodamine B assay relative to control; settings: read-out: Activity
[22] = tested on: SF-295; experiment: Growth inhibition of human SF295 cells assessed as cell growth at 10^-6 M incubated for 48 hrs by sulforhodamine B assay relative to control; settings: SF-295, 48 h, read-out: Activity
[23] = tested on: DU-145; experiment: Growth inhibition of human DU145 cells assessed as cell growth at 10^-6 M incubated for 48 hrs by sulforhodamine B assay relative to control; settings: DU-145, 48 h, read-out: Activity
[24] = tested on: M14; experiment: Growth inhibition of human M14 cells assessed as cell growth at 10^-5 M incubated for 48 hrs by sulforhodamine B assay relative to control; settings: M14, 48 h, read-out: Activity
[25] = tested on: SK-MEL-28; experiment: Growth inhibition of human SK-MEL-28 cells assessed as cell growth at 10^-5 M incubated for 48 hrs by sulforhodamine B assay relative to control; settings: SK-MEL-28, 48 h, read-out: Activity
[26] = tested on: Hs-578T; experiment: Growth inhibition of human Hs 578T cells assessed as cell growth at 10^-5 M incubated for 48 hrs by sulforhodamine B assay relative to control; settings: read-out: Activity
[27] = tested on: CCRF-CEM; experiment: Growth inhibition of human CCRF-CEM cells assessed as cell growth at 10^-4 M incubated for 48 hrs by sulforhodamine B assay relative to control; settings: read-out: Activity
[28] = tested on: SW-620; experiment: Growth inhibition of human SW620 cells assessed as cell growth at 10^-4 M incubated for 48 hrs by sulforhodamine B assay relative to control; settings: SW-620, 48 h, read-out: Activity
[29] = tested on: OVCAR-4; experiment: Growth inhibition of human OVCAR4 cells assessed as cell growth at 10^-4 M incubated for 48 hrs by sulforhodamine B assay relative to control; settings: OVCAR-4, 48 h, read-out: Activity
[30] = tested on: TK-10; experiment: Growth inhibition of human TK10 cells assessed as cell growth at 10^-4 M incubated for 48 hrs by sulforhodamine B assay relative to control; settings: TK-10, 48 h, read-out: Activity
[31] = tested on: A549; experiment: Growth inhibition of human A549/ATCC cells assessed as cell growth at 10^-6 M incubated for 48 hrs by sulforhodamine B assay relative to control; settings: A549, 48 h, read-out: Activity
[32] = tested on: SK-MEL-5; experiment: Growth inhibition of human SK-MEL-5 cells assessed as cell growth at 10^-6 M incubated for 48 hrs by sulforhodamine B assay relative to control; settings: SK-MEL-5, 48 h, read-out: Activity
[33] = tested on: NCI-H226; experiment: Growth inhibition of human NCI-H226 cells assessed as cell growth at 10^-5 M incubated for 48 hrs by sulforhodamine B assay relative to control; settings: NCI-H226, 48 h, read-out: Activity
[34] = read-out: LC50 (the source's name)
[35] = read-out: pLC50 (the source's name) (converted)

Row | SMILES | GI50 [1] [µM] | TGI ([1]; read-out: TGI) [µM] | GI50 [2] [µM] | TGI ([2]; read-out: TGI) [µM] | CC50 [2] [µM] | GI50 [3] [µM] | TGI [3] [µM] | growth at 0.01 µM [4] [%] | growth at 0.01 µM [5] [%] | growth at 0.01 µM [6] [%] | growth at 0.01 µM [7] [%] | growth at 0.01 µM [8] [%] | growth at 0.01 µM [9] [%] | growth at 0.01 µM [10] [%] | growth at 0.01 µM [11] [%] | growth at 0.01 µM [12] [%] | growth at 0.01 µM [13] [%] | growth at 0.01 µM [14] [%] | growth at 0.1 µM [15] [%] | growth at 0.1 µM [16] [%] | further results
1 | C#C[C@@]1(O)[C@@H](CO)O[C@@H](n2cc(Br)c3c(N)ncnc32)[C@@H]1O | 0.0312 to 0.076 | > 100 | 0.0628 to 0.151 | > 100 | > 100 | 0.307 to 1.35 | 52.4 to 100 | 96 to 100 | 86 to 95 | 95 to 101 | 85 | 81 to 89 | 83 to 93 | 91 to 93 | 100 to 102 | 96 to 106 | 93 to 96 | 90 to 104 | 38 to 67 | 45 to 63 | CC50 [1, 34]: > 100 µM; TGI ([1]; read-out: pTGI (converted)): > 100 µM; TGI ([2]; read-out: pTGI (converted)): > 100 µM; CC50 [3, 35]: > 100 µM; growth at 0.1 µM [17]: 79 to 91%; growth at 0.1 µM [18]: 70 to 93%; growth at 0.1 µM [19]: 34 to 41%; growth at 0.1 µM [20]: 81 to 103%; growth at 1 µM [21]: 5 to 11%; growth at 1 µM [22]: 24 to 36%; growth at 1 µM [23]: 15 to 16%; growth at 10 µM [24]: 6 to 11%; growth at 10 µM [25]: 38 to 40%; growth at 10 µM [26]: 3 to 9%; growth at 100 µM [27]: 3 to 4%; growth at 100 µM [28]: 4 to 6%; growth at 100 µM [29]: 3 to 15%; growth at 100 µM [30]: 7%
2 | C#C[C@@]1(O)[C@@H](CO)O[C@@H](n2cc(I)c3c(N)ncnc32)[C@@H]1O | 0.0572 to 0.059 | > 100 | 0.0983 to 0.164 | > 100 | > 100 | 0.55 to 1.12 | 7.12 to 8.62 | 97 | 75 to 83 | 95 to 96 | 79 to 90 | 85 to 86 | 92 | 89 to 102 | 85 to 98 | 84 to 101 | 88 to 97 | 96 to 100 | 42 to 64 | 51 to 60 | CC50 [1, 35]: > 100 µM; TGI ([1]; read-out: pTGI (converted)): > 100 µM; TGI ([2]; read-out: pTGI (converted)): > 100 µM; CC50 [3, 34]: > 100 µM; growth at 0.1 µM [17]: 75 to 82%; growth at 0.1 µM [18]: 81 to 88%; growth at 0.1 µM [19]: 41 to 47%; growth at 0.1 µM [20]: 82 to 90%; growth at 1 µM [21]: 17 to 23%; growth at 1 µM [31]: 29 to 41%; growth at 1 µM [22]: 31 to 35%; growth at 1 µM [32]: 14 to 26%; growth at 1 µM [23]: 19 to 26%; growth at 10 µM [33]: 6 to 10%; growth at 100 µM [27]: 2 to 8%; growth at 100 µM [28]: 3%; growth at 100 µM [29]: 9 to 14%
3 | C#C[C@@]1(O)[C@@H](CO)O[C@@H](n2cc(Cl)c3c(N)ncnc32)[C@@H]1O | 0.0513 to 0.098 | > 100 | 0.109 to 0.159 | 27 to 100 | > 100 | 0.463 to 2.48 | 7.01 to 100 | 96 to 97 | 81 to 83 | 99 to 100 | 83 to 89 | 88 to 91 | 82 to 88 | 88 to 92 | 93 to 100 | 86 to 95 | 94 | 88 to 100 | 47 to 62 | 57 to 61 | CC50 [1, 35]: > 100 µM; CC50 [3, 35]: > 100 µM; growth at 0.1 µM [17]: 90 to 98%; growth at 0.1 µM [18]: 79 to 90%; growth at 0.1 µM [19]: 37 to 40%; growth at 0.1 µM [20]: 105 to 110%; growth at 1 µM [21]: 7%; growth at 1 µM [22]: 13 to 20%; growth at 1 µM [23]: 7 to 12%; growth at 10 µM [25]: 44 to 45%; growth at 100 µM [27]: 2 to 5%
